ChEMBL document CHEMBL1201862, “PubChem BioAssay data set” (2004)
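Step 1: Grow cells in 96-well plates. Step 2: Expose to compound for 48 hours at 5 concentrations. Step 3: Interpolate endpoints linearly; if unreached, use highest concentration. GI50 marks 50% less growth.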 Calls of active or inactive are those of the source. No stated cut-off is given here; in the data, active = GI50 up to about 1.1 µM and inactive = higher.

Key:
Assay in all cases: NCI anticancer screen, dose series, 48 h
UACC-62 = system: UACC-62
HOP-62 = system: HOP-62
HCT-15 = system: HCT-15
OVCAR-3 = system: OVCAR-3
NCI-H226 = system: NCI-H226
SNB-75 = system: SNB-75
MDA-MB-231 = system: MDA-MB-231
SNB-19 = system: SNB-19
SW-620 = system: SW-620
786-0 = system: 786-0
SN12C = system: SN12C
OVCAR-8 = system: OVCAR-8
NCI-H522 = system: NCI-H522
CAKI-1 = system: CAKI-1
COLO 205 = system: COLO 205
IGROV-1 = system: IGROV-1
SF-268 = system: SF-268
UO-31 = system: UO-31
HT-29 = system: HT-29
SF-539 = system: SF-539

Compound | GI50 (UACC-62) | GI50 (HOP-62) | GI50 (HCT-15) [µM] | GI50 (OVCAR-3) | GI50 (NCI-H226) | GI50 (SNB-75) | GI50 (MDA-MB-231) | GI50 (SNB-19) | GI50 (SW-620) | GI50 (786-0) | GI50 (SN12C) | GI50 (OVCAR-8) | GI50 (NCI-H522) | GI50 (CAKI-1) | GI50 (COLO 205) | GI50 (IGROV-1) | GI50 (SF-268) | GI50 (UO-31) | GI50 (HT-29) | GI50 (SF-539)
COc1ccc(/C(Cl)=C(\C=O)c2ccc(OC)c(OC)c2)cc1OC | > 100 µM (inactive) | > 84.7 µM (inactive) | 83 | > 46.8 µM (inactive) | 91.6 µM (inactive) | 22.9 µM (inactive) | > 100 µM (inactive) | > 100 µM (inactive) | > 100 µM (inactive) | > 100 µM (inactive) | > 100 µM (inactive) | > 94.6 µM (inactive) | 43.5 µM (inactive) | > 100 µM (inactive) | > 100 µM (inactive) | 95.3 µM (inactive) | 37.2 µM (inactive) | > 100 µM (inactive) | 41.6 µM (inactive) | 94.6 µM (inactive)
COC(=O)c1c(OC(C)=O)ccc2c1c1c(n2C)C(=O)c2ccccc2C1=O | 35.3 µM (inactive) | 17.3 µM (inactive) | 24.8 | 17.9 µM (inactive) | 38.9 µM (inactive) | 7.93 µM (inactive) | 32.8 µM (inactive) | 33.7 µM (inactive) |  | 25.5 µM (inactive) | 39.6 µM (inactive) | 25.8 µM (inactive) | 21.7 µM (inactive) | 20.7 µM (inactive) | 55.3 µM (inactive) | 3.86 µM (inactive) | 24.4 µM (inactive) | 21 µM (inactive) | 46.8 µM (inactive) | 19.1 µM (inactive)
O=P(O)(O)c1ccc(-c2ccc(I)cc2)cc1 | > 100 µM (inactive) | > 100 µM (inactive) | > 100 |  | > 100 µM (inactive) | 65 µM (inactive) | > 100 µM (inactive) | > 100 µM (inactive) | > 100 µM (inactive) | > 100 µM (inactive) | > 100 µM (inactive) | > 100 µM (inactive) | > 100 µM (inactive) | > 100 µM (inactive) | > 100 µM (inactive) | > 100 µM (inactive) | > 100 µM (inactive) | > 100 µM (inactive) | > 100 µM (inactive) | > 100 µM (inactive)
Nc1ncnc2c1ncn2C1OC(CO)=CC1O (stereo not drawn) | > 37.5 µM (inactive) | > 37.5 µM (inactive) | > 37.5 | > 37.5 µM (inactive) | > 37.5 µM (inactive) | > 37.5 µM (inactive) | > 37.5 µM (inactive) | > 37.5 µM (inactive) | > 37.5 µM (inactive) | > 37.5 µM (inactive) | > 37.5 µM (inactive) | > 37.5 µM (inactive) | > 37.5 µM (inactive) | > 37.5 µM (inactive) | > 37.5 µM (inactive) | > 37.5 µM (inactive) | > 37.5 µM (inactive) | > 37.5 µM (inactive) | > 37.5 µM (inactive) | > 37.5 µM (inactive)
CCO/C=N/C1=C(C#N)C(c2ccc(OC)c(OC)c2)c2c(-c3ccccc3)nn(-c3ccccc3)c2O1 (stereo not drawn) | 14.4 µM (inactive) | 17.7 µM (inactive) | 5.11 | 16.1 µM (inactive) | 11.3 µM (inactive) | 15.5 µM (inactive) | 19.2 µM (inactive) | 15.9 µM (inactive) | 11.8 µM (inactive) | 13.6 µM (inactive) | 14.8 µM (inactive) | 19.2 µM (inactive) | 10.6 µM (inactive) | 17 µM (inactive) | 13.1 µM (inactive) | 3.16 µM (inactive) | 18.5 µM (inactive) | 17.7 µM (inactive) | 19.1 µM (inactive) | 8.67 µM (inactive)
CC(C)C1=CC23CCC4C(C)(C(=O)O)CCCC4(C)C2CC1C1C(=O)N(c2ccc(C(=O)O)cc2)C(=O)C13 (stereo not drawn) | > 100 µM (inactive) | > 100 µM (inactive) | > 100 | > 100 µM (inactive) | > 100 µM (inactive) | > 100 µM (inactive) | > 100 µM (inactive) | > 100 µM (inactive) | > 100 µM (inactive) | > 100 µM (inactive) | > 100 µM (inactive) | > 100 µM (inactive) | > 100 µM (inactive) | > 100 µM (inactive) | > 100 µM (inactive) | > 100 µM (inactive) | > 100 µM (inactive) | > 100 µM (inactive) | > 100 µM (inactive) | > 100 µM (inactive)
CCC[C@H]1C(=O)N=C(N)N1C(=O)OCc1ccccc1 | > 100 µM (inactive) | > 100 µM (inactive) | > 100 | > 100 µM (inactive) | > 100 µM (inactive) | > 100 µM (inactive) | > 100 µM (inactive) | > 100 µM (inactive) | > 100 µM (inactive) | > 100 µM (inactive) | > 100 µM (inactive) | > 100 µM (inactive) | > 100 µM (inactive) | > 100 µM (inactive) | > 100 µM (inactive) | > 100 µM (inactive) | > 100 µM (inactive) | 86.9 µM (inactive) | > 100 µM (inactive) | > 100 µM (inactive)
